Where two headings read alike, the source gives them in different places.

Data set [1] deals with T1, hmGlu1 (Homo sapiens, UniProt Q13255). The experiment in a line: Calcium mobilization mGlu1 PAM assay. The class given is cell-based. As to conditions: for mGlu1 agonism / PAM profile: agonism at concentrations above 10 µM; for Fold selective versus mGlu4: mGlu4 EC50 / mGlu1 EC50. (In general: Calcium assays in cells follow changes in intracellular calcium, usually with a dye or a luminescent sensor.)

The next data set has as its target mGlu5 (Homo sapiens, UniProt P41594). As to the kind of experiment: Activity at mGlu5. The class given is cell-based.
A short description of data set [2]: In vitro predicted hepatic clearance, human hepatic microsomes. It is filed as in vitro ADME.
Data set [3] in a line: In vitro predicted hepatic clearance, rat hepatic microsomes. It is filed as in vitro ADME.
Data set [4] can be described thus: Rat brain homogenate binding. The class given is in vitro ADME.
Data set [5] deals with T1, hmGlu1. Conditions: cited from earlier work.
The conditions of data set [6]: human; cited from earlier work.
For data set [7] the following is noted: rat; cited from earlier work.
For data set [8] the following is noted: cited from earlier work.

T1 sequence (Q13255 19-1194): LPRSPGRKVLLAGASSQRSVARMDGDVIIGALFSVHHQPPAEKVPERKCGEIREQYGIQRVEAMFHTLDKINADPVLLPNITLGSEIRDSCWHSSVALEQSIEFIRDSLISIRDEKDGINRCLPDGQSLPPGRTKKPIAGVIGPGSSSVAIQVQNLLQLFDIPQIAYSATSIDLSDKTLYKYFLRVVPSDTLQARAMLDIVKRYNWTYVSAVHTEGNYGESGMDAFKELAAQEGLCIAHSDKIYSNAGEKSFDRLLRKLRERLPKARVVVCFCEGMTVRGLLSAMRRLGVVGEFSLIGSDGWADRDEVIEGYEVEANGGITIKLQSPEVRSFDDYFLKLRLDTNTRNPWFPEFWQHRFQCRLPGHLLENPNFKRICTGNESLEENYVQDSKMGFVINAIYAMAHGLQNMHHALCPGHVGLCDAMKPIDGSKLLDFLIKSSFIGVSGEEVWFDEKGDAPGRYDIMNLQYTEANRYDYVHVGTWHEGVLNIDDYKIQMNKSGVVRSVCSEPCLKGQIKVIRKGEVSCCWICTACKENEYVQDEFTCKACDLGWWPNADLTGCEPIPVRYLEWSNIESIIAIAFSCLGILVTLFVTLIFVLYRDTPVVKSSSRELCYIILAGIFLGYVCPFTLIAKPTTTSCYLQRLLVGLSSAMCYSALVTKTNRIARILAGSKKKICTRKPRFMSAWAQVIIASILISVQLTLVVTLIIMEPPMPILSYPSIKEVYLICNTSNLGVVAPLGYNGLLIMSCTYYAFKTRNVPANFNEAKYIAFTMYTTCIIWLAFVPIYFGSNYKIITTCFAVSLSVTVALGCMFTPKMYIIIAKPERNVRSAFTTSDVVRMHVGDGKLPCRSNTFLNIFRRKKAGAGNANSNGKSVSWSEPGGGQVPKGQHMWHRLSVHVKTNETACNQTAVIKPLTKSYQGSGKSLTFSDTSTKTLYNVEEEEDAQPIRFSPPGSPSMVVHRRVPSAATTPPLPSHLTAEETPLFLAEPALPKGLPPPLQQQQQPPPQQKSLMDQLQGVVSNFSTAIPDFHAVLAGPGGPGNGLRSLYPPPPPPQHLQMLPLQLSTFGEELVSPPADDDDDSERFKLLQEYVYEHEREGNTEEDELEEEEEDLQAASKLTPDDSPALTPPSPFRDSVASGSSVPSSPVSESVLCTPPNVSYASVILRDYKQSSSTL
Chain of mGlu5 (P41594 21-1212): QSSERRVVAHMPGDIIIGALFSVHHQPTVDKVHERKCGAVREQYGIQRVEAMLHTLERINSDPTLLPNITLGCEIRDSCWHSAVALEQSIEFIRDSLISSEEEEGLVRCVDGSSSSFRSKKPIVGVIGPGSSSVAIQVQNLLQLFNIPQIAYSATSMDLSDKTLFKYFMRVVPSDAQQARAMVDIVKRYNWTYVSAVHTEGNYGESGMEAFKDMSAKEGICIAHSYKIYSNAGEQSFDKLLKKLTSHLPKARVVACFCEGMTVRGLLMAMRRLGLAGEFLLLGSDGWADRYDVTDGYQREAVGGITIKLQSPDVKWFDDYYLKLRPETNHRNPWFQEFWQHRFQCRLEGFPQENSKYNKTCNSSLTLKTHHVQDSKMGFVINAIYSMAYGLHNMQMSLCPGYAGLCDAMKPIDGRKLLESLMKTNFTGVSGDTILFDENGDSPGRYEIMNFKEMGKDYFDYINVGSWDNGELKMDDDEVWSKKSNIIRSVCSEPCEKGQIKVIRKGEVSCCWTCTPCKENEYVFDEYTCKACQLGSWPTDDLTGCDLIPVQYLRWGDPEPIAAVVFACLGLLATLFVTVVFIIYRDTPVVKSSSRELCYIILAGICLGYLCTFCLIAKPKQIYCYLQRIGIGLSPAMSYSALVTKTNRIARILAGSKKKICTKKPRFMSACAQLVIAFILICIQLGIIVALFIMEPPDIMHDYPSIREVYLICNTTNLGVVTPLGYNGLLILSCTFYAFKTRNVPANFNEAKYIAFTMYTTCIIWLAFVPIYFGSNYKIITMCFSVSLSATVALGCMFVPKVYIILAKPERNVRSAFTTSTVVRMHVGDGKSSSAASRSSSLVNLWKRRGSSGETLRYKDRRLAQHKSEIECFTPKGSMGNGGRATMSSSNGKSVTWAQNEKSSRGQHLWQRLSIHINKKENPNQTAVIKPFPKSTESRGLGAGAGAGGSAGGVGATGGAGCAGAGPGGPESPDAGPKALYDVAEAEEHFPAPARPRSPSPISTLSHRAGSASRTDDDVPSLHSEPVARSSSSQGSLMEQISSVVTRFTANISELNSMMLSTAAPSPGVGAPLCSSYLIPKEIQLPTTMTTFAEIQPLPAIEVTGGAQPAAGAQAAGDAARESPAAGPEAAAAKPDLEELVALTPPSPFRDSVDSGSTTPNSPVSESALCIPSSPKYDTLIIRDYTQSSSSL

Broadly, the fraction unbound is the share of the substance not bound to proteins or other matrix. The low end stands for extensive binding, the high end for weak binding. `Cc1ccoc1C(=O)Nc1ccc(N2C(=O)c3ccccc3C2=O)cc1Cl` [12b]: on hmGlu1 [1], the “mGlu1 agonism / PAM profile” value is reported as “did not show any observable agonistic effect”. Also, the “Fold selective versus mGlu4” value on hmGlu1 [1] is on record as above 344 fold. Besides, the “activity at mGlu5” value at mGlu5 is “no activity”. Further, the “predicted hepatic clearance CLHEP” value in data set [2] is listed as 9.25 mL/min/kg; in [3], 48.7 mL/min/kg. Also, the fraction unbound in data set [4] is below 0.01.
On to `COc1cc(N2C(=O)c3ccccc3C2=O)ccc1NC(=O)c1occc1C` [12e], for which the “Fold selective versus mGlu4” value at hmGlu1 [1] was above 30.3 fold.
As to `Cc1ccoc1C(=O)Nc1ccc(N2C(=O)c3ccccc3C2=O)nc1` [11a], the “Fold selective versus mGlu4” value on hmGlu1 [1] is above 25.8 fold.
For `Cc1ccoc1C(=O)Nc1cnc(N2C(=O)c3ccccc3C2=O)nc1` [11e], the “mGlu1 versus mGlu4 PAM potency” value on hmGlu1 [1] is given as “equipotent”.
On to `Cc1ccoc1C(=O)Nc1ccc(N2C(=O)c3ccccc3C2=O)cc1F` [12a], for which the “mGlu1 agonism / PAM profile” value on hmGlu1 [1] was “did not show any observable agonistic effect”. For the same compound, on hmGlu1 [1], the “Fold selective versus mGlu4” value is reported as above 793 fold. Besides, on mGlu5, the “activity at mGlu5” value is on record as “no activity”. Besides, the results for the “predicted hepatic clearance CLHEP” value in data set [2] and in data set [3] were 9.65 mL/min/kg and 48.5 mL/min/kg, respectively. Moreover, the fraction unbound in [4] was below 0.01.
Take `Cc1ccoc1C(=O)Nc1ccc(N2C(=O)c3cccc(F)c3C2=O)c(Cl)c1` [compound 4]: at hmGlu1 [5] (at concentrations above 10 µM, previously observed with parent compound), the mGlu1 agonism result is given as “considerable agonism”. On hmGlu1 [5], the “selectivity versus mGlu4” value is recorded as 35 fold. Also, the results for the free fraction fu in data set [6] and in data set [7] were 0.05 and 0.03, respectively. Further, in data set [8], the “Kp (CNS penetration)” value is 1.02. Also, the CLp in data set [8] (rat PK) is listed as 13.3 mL/min/kg.
For `Cc1ccoc1C(=O)Nc1ccc(N2C(=O)c3ccccc3C2=O)cc1` [10a], the “Fold selective versus mGlu4” value at hmGlu1 [1] is recorded as above 208 fold.
As to `Cc1ccoc1C(=O)Nc1cnc(N2C(=O)c3cccc(F)c3C2=O)nc1` [11h], on hmGlu1 [1], the “mGlu1 versus mGlu4 PAM potency” value is “equipotent” and the “Fold selective versus mGlu4” value is reported as above 1.88 fold.

The record behind these values is publication PMC4758672 (Bioorganic & medicinal chemistry letters, 2015).
